Assay results reported in article PMC4042406 (British journal of haematology, 2011).
Values joined by “and” are separate entries in the source; they are usually repeats but may differ in a detail not shown here. Identical values can stand only once.

Key:
MM.1S cells [1] = assay: Drug combination viability; type: cell-based, human; settings: data not shown
CDK5/p25 = CDK5/p25 (Homo sapiens, UniProt Q00535); assay: Invitrogen Z'-LYTE in vitro kinase activity assay; type: biochemical; settings: 500 nM LCQ195, 100 μM ATP, 1% DMSO
CHEK2 (CHK2) = CHEK2 (CHK2) (Homo sapiens, UniProt O96017); assay: Invitrogen Z'-LYTE in vitro kinase activity assay; type: biochemical; settings: 500 nM LCQ195, 100 μM ATP, 1% DMSO
Dox40 MM cell line = assay: MTT colorimetric survival assay; type: cell-based, human; settings: read-out: EC50 (viability), Dox40, 0-4 μM, 48 hrs
CDK5/p35 = CDK5/p35 (Homo sapiens, UniProt Q00535); assay: Invitrogen Z'-LYTE in vitro kinase activity assay; type: biochemical; settings: 500 nM LCQ195, 100 μM ATP, 1% DMSO
S6B45 MM cell line = assay: MTT colorimetric survival assay; type: cell-based, human; settings: read-out: EC50 (viability), S6B45, 0-4 μM, 48 hrs
MM.1S cells [2] = assay: Immunoblotting analysis of LCQ195-treated cells; type: cell-based, human; settings: 2 μM
[3] = test system: immortalized hepatocyte cell line THLE-3; assay: MTT viability of immortalized hepatocytes; type: cell-based; settings: read-out: calculated EC50 (viability); immortalized hepatocytes THLE-3
MM.1S cells [4] = assay: Immunoblotting, comparison of LCQ195, flavopiridol and Taxol; settings: equipotent doses: LCQ195 1 μM, flavopiridol 50 nM; 4-24 hrs
CDK2/cyclin E = CDK2/cyclin E (Homo sapiens, UniProt P24941); assay: Millipore KinaseProfilerXL kinase activity, dose titration; type: biochemical; settings: 5-log dose titration 0.001-10μM
MM.1S cells [5] = assay: Annexin V / PI flow cytometric analysis of apoptosis; type: cell-based, human; settings: 2 μM, 4-48 hrs
XG-1 MM cell line = assay: MTT colorimetric survival assay; type: cell-based, human; settings: read-out: EC50 (viability), XG-1, 0-4 μM, 48 hrs
KMS-12-BM MM cell line = assay: MTT colorimetric survival assay; type: cell-based, human; settings: read-out: EC50 (viability), 0-4 μM, 48 hrs
U266 MM cell line = assay: MTT colorimetric survival assay; type: cell-based, human; settings: read-out: EC50 (viability), U266, 0-4 μM, 48 hrs
CDK2/cyclin A [6] = biological target: T1, CDK2/cyclin A (Homo sapiens, UniProt P24941); assay: Millipore KinaseProfilerXL kinase activity, dose titration; type: biochemical; settings: 5-log dose titration 0.001-10μM
panel of MM cell lines = assay: MTT colorimetric survival assay, panel of MM cell lines; type: cell-based, human; settings: read-out: EC50 (viability), majority of MM cell lines, 0-4 μM, 48 hrs
OPM2 MM cell line = assay: MTT colorimetric survival assay; type: cell-based, human; settings: read-out: EC50 (viability), OPM2, 0-4 μM, 48 hrs
MM.1S cells [7] = assay: Gene expression profiling; type: cell-based, human; settings: 2 μM, 2-24hrs
[8] = test system: Bcl-2 over-expressing MM.1S; assay: Survival of Bcl-2 over-expressing MM.1S vs parental cells; type: cell-based, human; settings: LCQ195 treatment for 48 hrs
Delta 47 MM cell line = assay: MTT colorimetric survival assay; type: cell-based, human; settings: read-out: EC50 (viability), Delta 47, 0-4 μM, 48 hrs
HS-5 BMSCs = assay: MTT viability of non-malignant stromal cells; type: cell-based, human; settings: read-out: calculated EC50 (viability); non-malignant HS-5 BMSCs
MM.1S cells [9] = assay: Flow cytometric cell cycle analysis; type: cell-based, human; settings: 2 μM for up to 48 hours
NOP2 MM cell line = assay: MTT colorimetric survival assay; type: cell-based, human; settings: read-out: EC50 (viability), NOP2, 0-4 μM, 48 hrs
CDK2/cyclin A [10] = biological target: T1, CDK2/cyclin A; assay: Invitrogen Z'-LYTE in vitro kinase activity assay; type: biochemical; settings: 500 nM LCQ195, 100 μM ATP, 1% DMSO
PBMCs = assay: MTT viability of PBMCs from healthy donors; type: cell-based, human; settings: LCQ195 up to 8 μM for 48 hrs
[11] = test system: CD138+ selected primary MM cells; assay: CellTiterGlo viability of purified primary tumor cells from MM patients; type: cell-based, human; settings: increasing doses, 48 hrs
CLK3 = CLK3 (Homo sapiens, UniProt P49761); assay: Invitrogen Z'-LYTE in vitro kinase activity assay; type: biochemical; settings: 500 nM LCQ195, 100 μM ATP, 1% DMSO
CDK1/cyclin B = CDK1/cyclin B (Homo sapiens, UniProt P06493); assay: Invitrogen Z'-LYTE in vitro kinase activity assay; type: biochemical; settings: 500 nM LCQ195, 100 μM ATP, 1% DMSO
MM.1S cells [12] = assay: InnoCyte Cytochrome C release assay; type: cell-based, human

Sequence of CHEK2 (CHK2) (O96017 whole entry): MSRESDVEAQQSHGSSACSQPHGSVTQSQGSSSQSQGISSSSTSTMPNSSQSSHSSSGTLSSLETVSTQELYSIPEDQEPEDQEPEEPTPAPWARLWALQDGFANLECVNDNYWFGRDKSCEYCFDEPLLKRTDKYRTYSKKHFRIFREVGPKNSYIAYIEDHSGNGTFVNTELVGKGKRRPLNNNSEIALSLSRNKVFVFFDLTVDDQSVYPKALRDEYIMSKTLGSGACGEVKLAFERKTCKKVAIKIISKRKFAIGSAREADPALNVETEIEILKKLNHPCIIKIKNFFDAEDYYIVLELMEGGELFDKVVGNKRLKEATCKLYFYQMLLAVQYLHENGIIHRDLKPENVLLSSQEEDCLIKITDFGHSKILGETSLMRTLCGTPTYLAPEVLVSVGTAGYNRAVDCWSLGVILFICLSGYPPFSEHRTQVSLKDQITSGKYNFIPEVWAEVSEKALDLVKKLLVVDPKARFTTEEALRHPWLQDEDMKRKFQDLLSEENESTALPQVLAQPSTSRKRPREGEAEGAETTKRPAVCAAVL
Sequence of CDK1/cyclin B (P06493 whole entry): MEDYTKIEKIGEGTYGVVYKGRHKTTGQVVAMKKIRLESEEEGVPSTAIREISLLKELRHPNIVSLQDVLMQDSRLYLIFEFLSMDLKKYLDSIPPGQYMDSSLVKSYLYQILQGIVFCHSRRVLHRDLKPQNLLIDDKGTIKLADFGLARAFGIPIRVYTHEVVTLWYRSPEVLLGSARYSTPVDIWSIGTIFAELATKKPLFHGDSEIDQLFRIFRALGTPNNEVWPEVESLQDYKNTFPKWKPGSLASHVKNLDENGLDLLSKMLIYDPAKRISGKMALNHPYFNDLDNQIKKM
Sequence of CLK3 (P49761 whole entry): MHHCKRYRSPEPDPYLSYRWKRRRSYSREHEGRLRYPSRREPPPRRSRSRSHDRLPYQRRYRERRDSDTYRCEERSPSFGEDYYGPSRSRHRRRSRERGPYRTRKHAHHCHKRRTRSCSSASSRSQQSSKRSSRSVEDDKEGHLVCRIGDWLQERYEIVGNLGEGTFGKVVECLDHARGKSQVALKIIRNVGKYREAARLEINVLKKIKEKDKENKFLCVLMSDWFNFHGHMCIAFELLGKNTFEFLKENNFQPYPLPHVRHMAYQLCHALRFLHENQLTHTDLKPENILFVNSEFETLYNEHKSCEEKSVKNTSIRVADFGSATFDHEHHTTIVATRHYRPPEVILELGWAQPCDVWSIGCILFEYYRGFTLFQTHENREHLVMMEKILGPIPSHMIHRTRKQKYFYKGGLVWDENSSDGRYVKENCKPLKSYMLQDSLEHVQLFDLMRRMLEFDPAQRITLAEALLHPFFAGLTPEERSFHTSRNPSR
Sequence of CDK5/p35 (Q00535 whole entry): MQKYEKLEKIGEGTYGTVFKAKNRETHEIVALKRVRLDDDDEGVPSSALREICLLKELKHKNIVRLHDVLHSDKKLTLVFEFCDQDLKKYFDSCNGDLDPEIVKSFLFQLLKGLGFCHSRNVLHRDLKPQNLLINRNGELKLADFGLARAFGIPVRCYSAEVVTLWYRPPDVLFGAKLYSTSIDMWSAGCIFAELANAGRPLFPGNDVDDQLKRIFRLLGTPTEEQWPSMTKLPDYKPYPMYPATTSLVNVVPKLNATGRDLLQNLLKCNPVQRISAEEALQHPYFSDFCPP
Sequence of CDK5/p25 (Q00535 whole entry): as above

SMILES: CS(=O)(=O)N1CCC(NC(=O)c2[nH]ncc2NC(=O)c2c(Cl)cccc2Cl)CC1 [LCQ195]
- combination with bortezomib (MM.1S cells [1]): no synergy
- combination with doxorubicin (MM.1S cells [1]): no synergy
- inhibition of kinase activity (CDK5/p25): potent inhibition
- inhibition of kinase activity (CHEK2 (CHK2)): partial inhibition
- EC50 (Dox40 MM cell line): > 4000 nM
- inhibition of kinase activity (CDK5/p35): potent inhibition
- EC50 (S6B45 MM cell line): < 1000 nM
- caspase 8, caspase 3 and PARP cleavage (immunoblotting) (MM.1S cells [2]; 0-24 hrs): cleavage as early as 16 hrs
- caspase 9 cleavage (immunoblotting) (MM.1S cells [2]; 0-24 hrs): no cleavage of caspase 9
- Rb phosphorylation (immunoblotting) (MM.1S cells [2]; as early as 2 hours): pronounced decrease
- EC50 [3]: > 4000 nM
- p107 levels (immunoblotting) (MM.1S cells [4]): decreased
- in vitro kinase activity in dose titration (CDK2/cyclin E): active at sub-μM concentrations
- apoptosis (Annexin V / PI staining) (MM.1S cells [5]): induces apoptosis
- EC50 (XG-1 MM cell line): > 4000 nM
- EC50 (KMS-12-BM MM cell line): < 1000 nM
- EC50 (U266 MM cell line): < 1000 nM
- in vitro kinase activity in dose titration (CDK2/cyclin A [6]): active at sub-μM concentrations
- EC50 (panel of MM cell lines): ~1000 nM and ≤ 1000 nM
- EC50 (OPM2 MM cell line): < 1000 nM
- expression of transcription factors myc, IRF4 and XBP-1 (transcripts) (MM.1S cells [7]): suppressed
- effect of bcl-2 overexpression on cell survival after treatment [8]: minimal effect on cell survival
- EC50 (Delta 47 MM cell line): < 1000 nM
- EC50 (HS-5 BMSCs): > 4000 nM
- cell cycle profile (MM.1S cells [9]): increased the percentage of cells in S and G2/M phases early, followed by an increase in sub-G1 population
- EC50 (NOP2 MM cell line): > 4000 nM
- inhibition of kinase activity (CDK2/cyclin A [10]): potent inhibition
- percentage of viable PBMCs (PBMCs): ≥ 50%
- response of purified primary tumor cells (viability) [11]: responded
- inhibition of kinase activity (CLK3): partial inhibition
- inhibition of kinase activity (CDK1/cyclin B): potent inhibition
- cytochrome c release (MM.1S cells [12]; 2 μM LCQ195 for 4-24hrs): no changes

SMILES: CC(C)C[C@H](NC(=O)[C@H](Cc1ccccc1)NC(=O)c1cnccn1)B(O)O [PS-341, reference compound]
- cytochrome c release (MM.1S cells [12]; positive control, 50 nM for 12 hrs): significant release of cytochrome C

SMILES: CN1CC[C@H](c2c(O)cc(O)c3c(=O)cc(-c4ccccc4Cl)oc23)[C@H](O)C1 [flavopiridol, reference compound]
- p107 levels (immunoblotting) (MM.1S cells [4]): stable
